{"source": "patent US5854004A", "about": "“Process for screening substances capable of modulating a receptor-dependent cellular signal transmission path” (Boehringer Ingleheim GmbH, priority 1991, dated 1998)", "key": {"human 5HT2-receptor [1]": {"molecular_target": "T1, human 5HT2-receptor (Homo sapiens, UniProt P28223)", "T1 sequence (P28223 whole entry)": "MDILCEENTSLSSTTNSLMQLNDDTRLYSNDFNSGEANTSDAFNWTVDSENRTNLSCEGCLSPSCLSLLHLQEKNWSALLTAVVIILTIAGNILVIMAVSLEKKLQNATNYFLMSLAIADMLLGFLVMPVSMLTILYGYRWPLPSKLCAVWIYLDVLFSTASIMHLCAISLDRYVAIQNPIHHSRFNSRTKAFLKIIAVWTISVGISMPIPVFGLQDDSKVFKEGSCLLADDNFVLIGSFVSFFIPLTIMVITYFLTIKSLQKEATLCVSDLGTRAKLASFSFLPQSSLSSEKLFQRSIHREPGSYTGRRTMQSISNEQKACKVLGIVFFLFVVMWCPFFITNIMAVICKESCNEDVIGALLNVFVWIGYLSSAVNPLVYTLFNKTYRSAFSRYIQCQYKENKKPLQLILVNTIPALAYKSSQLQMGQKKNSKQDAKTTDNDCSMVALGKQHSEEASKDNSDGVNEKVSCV", "assay": "Induction of pBHluc1.3 (TRE) via 5-HT2-receptor in co-transfected COS-7 cells", "type": "cell-based", "description": "(§1) Induction was carried out with i) 20 μM forskolin (Sigma P8139), ii) 10 μα-methylserotonin-maleate (RBI M-110), and iii) 10 μα-methylserotonin-maleate and 10 μM ketanserin-tartrate (RBI S-006). […] It follows, from the above results, that, depending on 5-HT2 -receptors, only regulation elements which respond to IP3 /DAG (TRE), but not regulation elements which respond to cAMP (CRE) are selectively activated."}, "cell line CHO C6-13": {"system": "cell line CHO C6-13", "assay": "Luciferase expression in CRE-pretest cell line CHO C6-13", "conditions": "3 hours treatment, FIG. 33", "description": "The transfection by electroporation was carried out as follows: after removal of the medium the cells were detached from the surface by means of a trypsin/PBS solution, suspended in medium and pelleted for 5 minutes at 250×g. The cells were washed in HBS (10 mM HEPES pH 7.4, 150 mM NaCl) and pelleted by centrifuging. The cells were suspended in HBS in a density of 1×10^7 cells/ml. 0.8 ml of cell suspension were mixed with 20 μg of DNA of the plasmid pADneo2-C6-BGL linearised with ScaI and transferred into an electroporation dish. […] After the electroporation the cells were diluted in the medium mentioned above, 20,000 cells per 90 mm culture dish was sown and incubated overnight at 37° C.\nTwo batches of each were treated with 20 μM forskolin and incubated for a further 5 hours at 37° C. Then the medium was removed from all the cells and the cells were washed with PBS.\nCells of the cell line CHO C6-13 were treated for 3 hours with various substances which alter the intracellular concentration of cAMP or IP3 /DAG or simulate a change in concentration, and also treated with receptor-specific agonists which influence the above-mentioned signal transduction mechanisms."}, "human 5HT2-receptor [2]": {"molecular_target": "T1, human 5HT2-receptor", "assay": "cell-based", "source_text": "The human 5HT2-receptor is another example of a receptor coupled to the phospholipase C-signal transduction pathway. The TRE-cell line A20 is therefore also suitable in this case as a starting cell line for establishing a test cell line in order to discover substances which modulate the activity of the 5HT2-receptor.\nThe plasmid pAHyg-5HT2, linearised with BglII, was for this purpose transfected into the cell line A20 by electroporation as described under a) and grown in selection medium.\nFor this purpose the cells were simultaneously treated with a constant amount of serotonin (1 μg) and increasing amounts of antagonist."}, "cell line A20": {"system": "cell line A20", "assay": "Luciferase induction in stable TRE-pretest cell line A20 (A549, pBHluc1.3)", "conditions": "A20, no receptor DNA", "description": "In order to produce a stable (pre-)test cell line for substances which influence the expression of the luciferase gene by direct or receptor-mediated modulation of the IP3 /DAC-signal transduction pathway, A549 cells were simultaneously transfected with the plasmid pBHluc1.3 and the selection plasmid pRSVneo by electroporation as follows: after removal of the medium the cells were detached from the surface by means of a trypsin/PBS solution, suspended in medium and sedimented for 5 minutes at 250×g. […] 0.8 ml of cell suspension were combined with 20 μg of pBHluc1.3 and 2 μg of pRSVneo. Both plasmids had previously been linearised with BamHI.\n(§2) 15-20 days after transfection, individual cell clones were transferred into 96-well microtitre plates and further cultivated. […] Approximately 40,000 cells in each clone were sown, in a procedure repeated 6 times, in 200 μl per well of a light-impervious 96-well microtitre plate coated with tissue culture (Microlite™, Dynatech Laboratories) and incubated overnight at 37° C. Three mixtures were treated with 10 ng TPA/ml and incubated for a further 8 hours. Then the medium was removed and the cells were washed twice with PBS.\n(§3) The pretest cell line A20 was transfected, as described under a), by electroporation with the plasmid pAHyg-NK2, which had previously been linearised with BglII. From the day after transfection onwards, the cells were grown in selection medium, as used for the cell line A20 and additionally enriched with 150 μg/ml hygromycin B (Sigma). Individual clones were tested for inducibility of the luciferase activity as described under a)."}, "[3]": {"molecular_target": "T2, human neurokinin 2-receptor (Homo sapiens, UniProt P21452)", "T2 sequence (P21452 1-398)": "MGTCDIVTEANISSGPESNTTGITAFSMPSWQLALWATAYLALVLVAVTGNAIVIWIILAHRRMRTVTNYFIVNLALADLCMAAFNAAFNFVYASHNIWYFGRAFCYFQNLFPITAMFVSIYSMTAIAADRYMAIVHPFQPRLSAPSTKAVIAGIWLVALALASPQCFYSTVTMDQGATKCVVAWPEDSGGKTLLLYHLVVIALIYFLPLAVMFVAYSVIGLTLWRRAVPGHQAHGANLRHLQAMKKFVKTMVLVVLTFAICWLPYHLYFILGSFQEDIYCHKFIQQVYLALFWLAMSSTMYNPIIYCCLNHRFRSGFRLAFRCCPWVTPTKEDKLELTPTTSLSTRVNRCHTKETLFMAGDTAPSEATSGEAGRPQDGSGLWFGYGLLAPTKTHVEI", "assay": "Luciferase activity in NK2-test cell line A20/NK2-122", "description": "as §2\nThis Example illustrates the preparation of a test cell line for the human neurokinin 2 (NK2)-receptor which is coupled to the phospholipase C-signal transduction pathway. This test cell line makes it possible, by measurement of the luciferase activity, to identify substances which modulate the intracellular IP3 /DAG concentrations, depending on the receptor.\nas §3"}, "human 5HT2-receptor [4]": {"molecular_target": "T1, human 5HT2-receptor", "assay": "Induction of pADneo2-C6-BGL (CRE) via 5-HT2-receptor in co-transfected COS-7 cells", "type": "cell-based", "conditions": "20 μM forskolin or 10 μ α-methylserotonin-maleate", "description": "as §1"}, "[5]": {"molecular_target": "T3, human dopamine D1-receptor (Homo sapiens, UniProt P21728)", "T3 sequence (P21728 whole entry)": "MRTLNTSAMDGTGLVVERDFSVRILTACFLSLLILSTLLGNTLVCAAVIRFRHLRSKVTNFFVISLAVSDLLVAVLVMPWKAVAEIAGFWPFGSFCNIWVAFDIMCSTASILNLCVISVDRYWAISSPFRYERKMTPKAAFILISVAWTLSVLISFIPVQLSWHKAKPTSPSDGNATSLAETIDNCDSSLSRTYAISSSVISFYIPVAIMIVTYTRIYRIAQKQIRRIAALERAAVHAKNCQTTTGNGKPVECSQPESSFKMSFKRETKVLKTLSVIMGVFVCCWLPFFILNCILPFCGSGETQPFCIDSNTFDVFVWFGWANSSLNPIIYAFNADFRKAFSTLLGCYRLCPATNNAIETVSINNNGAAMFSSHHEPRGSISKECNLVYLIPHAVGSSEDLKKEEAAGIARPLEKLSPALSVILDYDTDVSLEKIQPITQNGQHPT", "assay": "Induction of pADneo2-C6-BGL (CRE) via dopamine-D1-receptor in co-transfected COS-7 cells"}, "[6]": {"molecular_target": "T3, human dopamine D1-receptor", "assay": "Luciferase activity in dopamine D1-receptor test cell line CHO 13D1-38", "description": "The cell line CHO C6-13 characterised above was transfected, as described under a), by electroporation with plasmid pAD-CMV2:D1, which had previously been linearised with FspI.\nFor the use of test cell lines in an automatic screening system with a high throughput rate it is advantageous to use microtitre plates having 96 wells per plate. For this purpose, 60,000 cells (CHO C6-13 or CHO 13D1-38) were sown in 200 μl medium per well in light-impermeable microtitre plates coated with tissue culture\n(Microlite™, Dynatech Labroatories) and incubated overnight at 37° C. Then various chemicals were added to the cells and they were incubated for a certain length of time (usually 3 hours). After removal of the medium the cells were washed with PBS, lysed in 1% Triton X-100 and the luciferase activity was measured in a 96-well luminometer (ML-1000, Dynatech) (FIG. 36).\nIn order to simulate a screening process in which the test substances are preferably supplied in a uniform solvent, a final concentration of 1% DMSO was used in this experiment."}, "[7]": {"molecular_target": "T3, human dopamine D1-receptor", "assay": "Induction of pBHluc1.3 (TRE) via dopamine-D1-receptor in co-transfected COS-7 cells", "type": "cell-based", "conditions": "10 ng/ml TPA or 1 μM apomorphine, 18 h"}}, "note": "Where no end group is shown, it is not given here.", "data": [{"compound": "O=C(c1ccc(F)cc1)C1CCN(CCn2c(=O)[nH]c3ccccc3c2=O)CC1", "note": "[ketanserin-tartrate]", "values": [{"measurement": "prevention of agonist-mediated induction", "setting": "human 5HT2-receptor [1]; 10 μM α-methylserotonin-maleate and 10 μM ketanserin-tartrate", "value": "prevented"}]}, {"compound": "NCCc1c[nH]c2ccc(O)cc12", "note": "[serotonin]", "values": [{"measurement": "change in luciferase expression/activity", "setting": "cell line CHO C6-13", "value": "did not bring about any significant change in the luciferase activity"}, {"measurement": "selectivity of dosage-activity curves", "setting": "human 5HT2-receptor [2]", "value": "selective for serotonin"}, {"measurement": "induction time up to which luciferase activity increases continuously", "setting": "human 5HT2-receptor [2]; serotonin 1 μM", "value": 6, "unit": "h"}, {"measurement": "induction of luciferase activity by receptor agonists in pretest cell line A20", "setting": "cell line A20", "value": "could not be induced"}]}, {"compound": "O=C(CCCN1CCC2(CC1)C(=O)NCN2c1ccccc1)c1ccc(F)cc1", "note": "[spiperone]", "values": [{"measurement": "inhibition of the agonistic activity of serotonin", "setting": "human 5HT2-receptor [2]; constant serotonin (1 μg), increasing antagonist, FIG. 32B", "value": "able to be inhibited"}]}, {"compound": "neuromedin K (NMK): neurokinin (Sigma), tachykinin", "values": [{"measurement": "relative effectiveness of the neurokinins", "setting": "[3]; dosage activity curves, FIG. 29A", "value": "NKA>neuromedin K (NMK)>substance P (SP)"}, {"measurement": "induction of luciferase activity by receptor agonists in pretest cell line A20", "setting": "cell line A20", "value": "could not be induced by any of the three tachykinins"}]}, {"compound": "CC(N)Cc1c[nH]c2ccc(O)cc12", "note": "(stereo not drawn) [α-methylserotonin-maleate]", "values": [{"measurement": "induction of luciferase expression (CRE)", "setting": "human 5HT2-receptor [4]", "value": "not by the 5-HT2-receptor-agonist α-methylserotonin-maleate"}, {"measurement": "induction of luciferase expression (TRE)", "setting": "human 5HT2-receptor [1]; COS-7, 10 ng/ml TPA or 10 μg α-methylserotonin-maleate, 18 h", "value": "induced both by TPA and by α-methylserotonin-maleate"}, {"measurement": "fold induction at 10 µM", "setting": "human 5HT2-receptor [2]; read-out: induction of luciferase activity, clone A20/5HT2-11", "value": "4 to 5"}]}, {"compound": "COc1ccccc1CN[C@H]1C2CCN(CC2)[C@H]1C(c1ccccc1)c1ccccc1", "note": "(relative stereo) [BIBO 2020, ±cis-3-(2-methoxybenzylamino)-2-benzhydrylquinulidine]", "values": [{"measurement": "inhibition of the agonistic effect of neurokinin A", "setting": "[3]", "value": "effective at higher concentrations (P7492>BIBO 2020>H-9290)"}]}, {"compound": "neurokinin A: neurokinin (Sigma), agonist at neurokinin 2-receptor (HKTDSFVGLM-NH2; ends and bridges not checked; UniProt P20366 98-107, looked up)", "values": [{"measurement": "induction of luciferase activity by receptor agonists in pretest cell line A20", "setting": "cell line A20", "value": "could not be induced by any of the three tachykinins"}]}, {"compound": "CN1CCc2cc(Cl)c(O)cc2[C@@H](c2ccccc2)C1", "note": "[SCH23390]", "values": [{"measurement": "prevention of agonist-mediated induction (CRE)", "setting": "[5]; 1 μM apomorphine and 1 μM SCH23390", "value": "prevented"}]}, {"compound": "CN1CCc2cccc3c2[C@H]1Cc1ccc(O)c(O)c1-3", "note": "[apomorphine]", "values": [{"measurement": "change in luciferase expression/activity", "setting": "cell line CHO C6-13", "value": "did not bring about any significant change in the luciferase activity"}, {"measurement": "induction of luciferase expression (CRE)", "setting": "[5]; COS-7, 20 μM forskolin or 1 μM apomorphine, 18 h", "value": "induced by forskolin and by apomorphine"}, {"measurement": "increase in luciferase activity, clone CHO 13D1-38", "setting": "[6]; 10 μM apomorphine, 4 hours", "value": "highest increase in luciferase activity"}, {"measurement": "concentration which brings about maximum induction of the luciferase reporter gene", "setting": "[6]; apomorphine final concentration", "value": 1, "unit": "µM"}, {"measurement": "time after stimulation at which increased luciferase activity was measured", "setting": "[6]; apomorphine, FIG. 37A", "value": "one"}, {"measurement": "time to maximum luciferase activation", "setting": "[6]; apomorphine, FIG. 37A", "value": 2.5, "unit": "h"}, {"measurement": "time up to which luciferase activation remained constant", "setting": "[6]; apomorphine, FIG. 37A", "value": 4, "unit": "h"}, {"measurement": "dependency of ED50 values on duration of receptor stimulation", "setting": "[6]; apomorphine, FIG. 37B", "value": "no significant dependency"}, {"measurement": "induction of luciferase expression (TRE)", "setting": "[7]", "value": "not by apomorphine"}]}, {"compound": "substance P (SP): neurokinin (Sigma), tachykinin (RPKPQQFFGLM-NH2; ends and bridges not checked; UniProt P20366 58-68, looked up)", "values": [{"measurement": "induction of luciferase activity by receptor agonists in pretest cell line A20", "setting": "cell line A20", "value": "could not be induced by any of the three tachykinins"}]}]}
